Data reported in ChEMBL document CHEMBL3885861, “Open TG-GATES”.

Species on record: Rattus norvegicus
Assay: Open TG-GATES - Regimen: Daily Repeat
Type: toxicity, organism-based, Sprague-Dawley
Parameters: regimen Daily Repeat, gender Male, age 6 weeks
Conditions: in vivo, po, 15 mg/kg, route gavage, dose level Middle; for APTT / Bas / Eos / Fbg / Hb / Ht / Lym / MCH / MCHC / MCV / Mono / Neu / PT / Plat / RBC / Ret / WBC: tissue Blood; for KIDNEY_L / KIDNEY_R / KIDNEY_TOTAL: tissue Kidney; for LIVER: tissue Liver; for A/G / ALP / ALT / AST / BUN / CRE / Ca / Cl / DBIL / GLC / IP / K / LDH / Na / PL / RALB / TBIL / TC / TG / TP / gamma-GTP: tissue Plasma

`CC(=N)S` [THIOACETAMIDE] showed a TERMINAL_BW (72 h, time 3 day) of 220.4 g, an APTT (72 h, time 3 day) of 16.6 s and a Bas (72 h, time 3 day) of 0%. It also gave an Eos (72 h, time 3 day) of 1%, a Fbg (72 h, time 3 day) of 254.2 mg/dL and a Hb (72 h, time 3 day) of 14 g/dL. The Ht (72 h, time 3 day) was 42.5%, the Lym (72 h, time 3 day) was 84% and the MCH (72 h, time 3 day) was 20.9 pg. For the same compound, the MCHC (72 h, time 3 day) was 33.1%, the MCV (72 h, time 3 day) was 63.2 fL and the Mono (72 h, time 3 day) was 5.2%. For the same compound, the Neu (72 h, time 3 day) was 9.6%, the PT (72 h, time 3 day) was 12.2 s and the Plat (72 h, time 3 day) was 113 x10_4/uL. It also gave an RBC (72 h, time 3 day) of 672.4 x10_4/ul, a Ret (72 h, time 3 day) of 5.5% and a WBC (72 h, time 3 day) of 167.1 x10_2/uL. The KIDNEY_L (72 h, time 3 day) was 1 g, the KIDNEY_R (72 h, time 3 day) was 1 g and the KIDNEY_TOTAL (72 h, time 3 day) was 1.9 g. It also gave an LIVER (72 h, time 3 day) of 11.1 g, an A/G (72 h, time 3 day) of 2.1 and an ALP (72 h, time 3 day) of 896 IU/L. The ALT (72 h, time 3 day) was 29.2 IU/L, the AST (72 h, time 3 day) was 57.2 IU/L and the BUN (72 h, time 3 day) was 17 mg/dL. For the same compound, the CRE (72 h, time 3 day) was 0.5 mg/dL, the Ca (72 h, time 3 day) was 10.5 mg/dL and the Cl (72 h, time 3 day) was 105.8 meq/L. It also gave a DBIL (72 h, time 3 day) of 0.02 mg/dL, a GLC (72 h, time 3 day) of 176.2 mg/dL and an IP (72 h, time 3 day) of 7.5 mg/dL. For the same compound, the K (72 h, time 3 day) was 5 meq/L, the LDH (72 h, time 3 day) was 92.8 IU/L and the Na (72 h, time 3 day) was 137.6 meq/L. For the same compound, the PL (72 h, time 3 day) was 159.4 mg/dL, the RALB (72 h, time 3 day) was 3.9 g/dL and the TBIL (72 h, time 3 day) was 0.3 mg/dL. The TC (72 h, time 3 day) was 76.4 mg/dL, the TG (72 h, time 3 day) was 148 mg/dL and the TP (72 h, time 3 day) was 5.8 g/dL. The gamma-GTP (72 h, time 3 day) was 2.4 IU/L, the TERMINAL_BW ([…], time 7 day) was 248.4 g and the TERMINAL_BW ([…], time 14 day) was 276.3 g. The TERMINAL_BW ([…], time 28 day) was 324.2 g, the APTT ([…], time 7 day) was 16.4 s and the Bas ([…], time 7 day) was 0%. The Eos ([…], time 7 day) was 1%, the Fbg ([…], time 7 day) was 247.2 mg/dL and the Hb ([…], time 7 day) was 13.9 g/dL. For the same compound, the Ht ([…], time 7 day) was 42.1%, the Lym ([…], time 7 day) was 82.8% and the MCH ([…], time 7 day) was 20.8 pg. It also gave an MCHC ([…], time 7 day) of 33%, an MCV ([…], time 7 day) of 63 fL and a Mono ([…], time 7 day) of 5.4%. For the same compound, the Neu ([…], time 7 day) was 11.2%, the PT ([…], time 7 day) was 12.7 s and the Plat ([…], time 7 day) was 108.4 x10_4/uL. For the same compound, the RBC ([…], time 7 day) was 668.4 x10_4/ul, the Ret ([…], time 7 day) was 4.5% and the WBC ([…], time 7 day) was 170.4 x10_2/uL. The APTT ([…], time 14 day) was 16.4 s, the Bas ([…], time 14 day) was 0% and the Eos ([…], time 14 day) was 1%. For the same compound, the Fbg ([…], time 14 day) was 239.8 mg/dL, the Hb ([…], time 14 day) was 14.7 g/dL and the Ht ([…], time 14 day) was 44%. For the same compound, the Lym ([…], time 14 day) was 79.8%, the MCH ([…], time 14 day) was 19.7 pg and the MCHC ([…], time 14 day) was 33.3%. It also gave an MCV ([…], time 14 day) of 59.3 fL, a Mono ([…], time 14 day) of 7.6% and a Neu ([…], time 14 day) of 11.8%. The PT ([…], time 14 day) was 13 s, the Plat ([…], time 14 day) was 111.2 x10_4/uL and the RBC ([…], time 14 day) was 743.4 x10_4/ul. It also gave a Ret ([…], time 14 day) of 3.5%, a WBC ([…], time 14 day) of 202.6 x10_2/uL and an APTT ([…], time 28 day) of 16.6 s. For the same compound, the Bas ([…], time 28 day) was 0%, the Eos ([…], time 28 day) was 1% and the Fbg ([…], time 28 day) was 240.2 mg/dL. It also gave a Hb ([…], time 28 day) of 15.1 g/dL, a Ht ([…], time 28 day) of 44.7% and a Lym ([…], time 28 day) of 75.4%. The MCH ([…], time 28 day) was 19 pg, the MCHC ([…], time 28 day) was 33.9% and the MCV ([…], time 28 day) was 56.1 fL. For the same compound, the Mono ([…], time 28 day) was 8.6%, the Neu ([…], time 28 day) was 14.8% and the PT ([…], time 28 day) was 11.9 s. For the same compound, the Plat ([…], time 28 day) was 116.1 x10_4/uL, the RBC ([…], time 28 day) was 798.6 x10_4/ul and the Ret ([…], time 28 day) was 3.2%. The WBC ([…], time 28 day) was 149.2 x10_2/uL, the KIDNEY_L ([…], time 7 day) was 1.1 g and the KIDNEY_R ([…], time 7 day) was 1.1 g. The KIDNEY_TOTAL ([…], time 7 day) was 2.2 g, the KIDNEY_L ([…], time 14 day) was 1.2 g and the KIDNEY_R ([…], time 14 day) was 1.2 g. It also gave a KIDNEY_TOTAL ([…], time 14 day) of 2.3 g, a KIDNEY_L ([…], time 28 day) of 1.2 g and a KIDNEY_R ([…], time 28 day) of 1.2 g. The KIDNEY_TOTAL ([…], time 28 day) was 2.4 g, the LIVER ([…], time 7 day) was 12.8 g and the LIVER ([…], time 14 day) was 12.7 g. It also gave an LIVER ([…], time 28 day) of 14.1 g, an A/G ([…], time 7 day) of 2 and an ALP ([…], time 7 day) of 926.6 IU/L. It also gave an ALT ([…], time 7 day) of 29.4 IU/L, an AST ([…], time 7 day) of 54.2 IU/L and a BUN ([…], time 7 day) of 19 mg/dL. The CRE ([…], time 7 day) was 0.6 mg/dL, the Ca ([…], time 7 day) was 10.5 mg/dL and the Cl ([…], time 7 day) was 105.6 meq/L. The DBIL ([…], time 7 day) was 0.016 mg/dL, the GLC ([…], time 7 day) was 172.4 mg/dL and the IP ([…], time 7 day) was 7.9 mg/dL. The K ([…], time 7 day) was 5.1 meq/L, the LDH ([…], time 7 day) was 97.4 IU/L and the Na ([…], time 7 day) was 136.2 meq/L. For the same compound, the PL ([…], time 7 day) was 152.6 mg/dL, the RALB ([…], time 7 day) was 4 g/dL and the TBIL ([…], time 7 day) was 0.3 mg/dL. It also gave a TC ([…], time 7 day) of 75.6 mg/dL, a TG ([…], time 7 day) of 114.8 mg/dL and a TP ([…], time 7 day) of 5.9 g/dL. The gamma-GTP ([…], time 7 day) was 2.4 IU/L, the A/G ([…], time 14 day) was 2.1 and the ALP ([…], time 14 day) was 760.2 IU/L. It also gave an ALT ([…], time 14 day) of 26.2 IU/L, an AST ([…], time 14 day) of 47.2 IU/L and a BUN ([…], time 14 day) of 20.4 mg/dL. For the same compound, the CRE ([…], time 14 day) was 0.6 mg/dL, the Ca ([…], time 14 day) was 10.3 mg/dL and the Cl ([…], time 14 day) was 104.8 meq/L. For the same compound, the DBIL ([…], time 14 day) was 0.05 mg/dL, the GLC ([…], time 14 day) was 173.8 mg/dL and the IP ([…], time 14 day) was 7.3 mg/dL. It also gave a K ([…], time 14 day) of 4.8 meq/L, an LDH ([…], time 14 day) of 90.2 IU/L and a Na ([…], time 14 day) of 134.2 meq/L. The PL ([…], time 14 day) was 127 mg/dL, the RALB ([…], time 14 day) was 3.9 g/dL and the TBIL ([…], time 14 day) was 0.3 mg/dL. For the same compound, the TC ([…], time 14 day) was 59.4 mg/dL, the TG ([…], time 14 day) was 87.4 mg/dL and the TP ([…], time 14 day) was 5.8 g/dL. It also gave a gamma-GTP ([…], time 14 day) of 1.6 IU/L, an A/G ([…], time 28 day) of 2 and an ALP ([…], time 28 day) of 660.6 IU/L. For the same compound, the ALT ([…], time 28 day) was 29.8 IU/L, the AST ([…], time 28 day) was 35.4 IU/L and the BUN ([…], time 28 day) was 20.4 mg/dL. The CRE ([…], time 28 day) was 0.6 mg/dL, the Ca ([…], time 28 day) was 10 mg/dL and the Cl ([…], time 28 day) was 105.4 meq/L. It also gave a DBIL ([…], time 28 day) of 0.014 mg/dL, a GLC ([…], time 28 day) of 164.8 mg/dL and an IP ([…], time 28 day) of 6.3 mg/dL. For the same compound, the K ([…], time 28 day) was 4.5 meq/L, the LDH ([…], time 28 day) was 114.6 IU/L and the Na ([…], time 28 day) was 134 meq/L. It also gave a PL ([…], time 28 day) of 125.4 mg/dL, an RALB ([…], time 28 day) of 3.9 g/dL and a TBIL ([…], time 28 day) of 0.2 mg/dL. For the same compound, the TC ([…], time 28 day) was 60.4 mg/dL, the TG ([…], time 28 day) was 62.4 mg/dL and the TP ([…], time 28 day) was 5.8 g/dL. For the same compound, the gamma-GTP ([…], time 28 day) was 1.6 IU/L.
